Assay results: patent publication US11554138B2, “Bismuth(III) complexes as adjuvants in the treatment of cancer using platinum-based chemotherapy” (THE UNIVERSITY OF HONG KONG, priority 2015, dated 2023)

Tests used:
[1] = tested on: HK-2 (human kidney proximal tubular cell); assay: XTT cell proliferation assay, protection against cisplatin cytotoxicity, HK-2; format: cell-based
Procedure: HK-2 cells treated with culture medium served as a control. The respective survival rate was measured by cell proliferation kit XTT. All data are in triplicates.
(§1) To evaluate the in vitro protection effect of test bismuth(III) complexes against cisplatin stress, two nontumorigenic normal human cell lines, HK-2 (human kidney proximal tubular cell) and MIHA (human hepatocyte cell) are incorporated herein for cell proliferation kit II XTT assay.
(§2) The XTT assay was carried out according to the manufacturer's instruction (Roche Diagnostics, USA). Typically, 1-2×10^4 cells per well were grown in flat-bottom 96-well plates at 37° C. for an overnight under a humidified atmosphere of 5% CO2. Cells pellets were washed with PBS and treated with bismuth(III) complexes at various concentrations (1-100 μM) for 2 hours prior to the exposure to cisplatin (10 μM and 100 μM for HK-2 and MIHA cell line, respectively) for 2 days. Cells grown under culture medium alone were used as a negative control. After a fixed incubation time, 50 μl of the XTT labeling mixture was added to each well and the cells were incubated for 2 hours. The formation of formazan dyes, produced only by metabolic active cells, was detected spectrophotometrically at 490 nm.

[2] = tested on: MIHA (human hepatocyte cell); assay: XTT cell proliferation assay, protection against cisplatin cytotoxicity, MIHA; format: cell-based
Procedure: MIHA cells treated with culture medium served as a control. The respective survival rate was measured by cell proliferation kit XTT. All data are in triplicates.
as §1, §2

testicular cancer = settings: cited from earlier work
female BALB/c mice = assay: Survival of cisplatin-treated mice (cisplatin induced nephrotoxicity); format: in vivo; settings: 50 mg/kg orally Day -2, -1, 0, 2, 4; cisplatin 30 mg/kg i.p. Day 0; n=8
Procedure: FIG. 5 Provides survival curves of cisplatin-treated mice with pretreatment of Bi-L1, Bi-L12 and BicitZ, respectively, showing the protective role of bimusth(III) complexes on cisplatin induced nephrotoxicity. All bismuth complexes (50 mg/kg) were administered orally on Day −2, Day −1, Day 0, Day 2 and Day 4. Cisplatin (30 mg/kg) was I.P. injected on Day 0. […] (Log-rank (Mantel-Cox) test, ***P=0.0004)

[3] = highly dependent on pH and ionic strength
[4] = tested on: SKNLP neuroblastoma cells; assay: Cisplatin anti-tumor activity in SKNLP neuroblastoma tumor-bearing mice
Procedure: 0.2 Million SKNLP neuroblastoma cells transfected with luminescent plasmid were inoculated into the adrenal gland of SCID beige mice. […] Cisplatin (7.5 mg/kg) was i.p. injected at Day 0, Day 7 and Day 14. Tumor growth was monitored by luminescent of the transfected tumor cells.
SKNLP neuroblastoma cells (˜2×10^5 cells) were transfected with luminescent plasmid were inoculated into the adrenal gland of BALB/c nude mice. […] Cisplatin (7.5 mg/kg) was i.p. injected on Day 0, and Day 7. Tumor growth was monitored by luminescent of the transfected tumor cells.
To evaluate whether Bi(III) complexes affect cisplatin's in vivo anti-tumor activity, SKNLP neuroblastoma cells transfected with luminescent plasmid were implanted into mice.

Compound | cells survived after exposure to cisplatin only ([1]; cisplatin 10 μM, 2 days) | cells survived after exposure to cisplatin only ([2]; cisplatin 100 μM, 2 days) | overall cure rate (testicular cancer) | increase of cell viability when co-treated with cisplatin ([1]; bismuth(III) complex 1-100 μM 2 hours prior to cisplatin 10 μM for 2 days, XTT) [%] | increase of cell viability when co-treated with cisplatin ([2]; bismuth(III) complex 1-100 μM 2 hours prior to cisplatin 100 μM for 2 days, XTT) [%] | survival rate of cisplatin-treated mice (Kaplan-Meier) (female BALB/c mice) | solubility of the complex in water [3] | effect on cisplatin's anti-cancer activity in tumor engrafted mice ([4]; SCID beige mice, oral 50 mg/Kg Day -1, 0 and every two days, cisplatin 7.5 mg/kg Day 0, 7, 14) | interference on cisplatin's chemotherapeutic effect ([4]; pretreatment at 100 mg/kg, cisplatin 7.5 mg/Kg, SCID beige tumor-bearing mice) | SKNLP tumor cells metastases in lung and liver (histology) ([4]; same experiments as FIG. 7 and FIG. 8, vs control and cisplatin alone)
N.N.[Cl][Pt][Cl] [cisplatin, cis-[PtCl2(NH3)2], reference compound] | Less than 40% | Less than 40% | over 90% | – | – | – | – | – | – | –
bismuth(III) zinc(II) citrate complex [BicitZ] | – | – | – | 16.7 | 28.5 | higher survival rate | over 100 mM | negligible effects | no interference | delays SKNLP tumor cells metastases
